Source: patent US20130190407A1, “CALCIUM RECEPTOR-ACTIVE MOLECULES” (NPS Pharmaceuticals, Inc., priority 1991, published 2013)

Assays:
Format in all cases: cell-based
HuPCaR 5.2 = target: T1, HuPCaR 5.2 (Homo sapiens, UniProt P41180, E1011Q/Q926R); test: [Ca2+]i (fura-2) in HEK293 cells transfected with HuPCaR 5.2
T1 construct: appear to be full-length clones corresponding to the 5 Kb mRNA; expressed in transfected cells; host or cells: HEK293 cells, hygromycin-selected pool, Cep4B vector with the HuPCaR 5.2 insert
T1 sequence (P41180 20-1088 isoform P41180-2 Q936R/E1021Q): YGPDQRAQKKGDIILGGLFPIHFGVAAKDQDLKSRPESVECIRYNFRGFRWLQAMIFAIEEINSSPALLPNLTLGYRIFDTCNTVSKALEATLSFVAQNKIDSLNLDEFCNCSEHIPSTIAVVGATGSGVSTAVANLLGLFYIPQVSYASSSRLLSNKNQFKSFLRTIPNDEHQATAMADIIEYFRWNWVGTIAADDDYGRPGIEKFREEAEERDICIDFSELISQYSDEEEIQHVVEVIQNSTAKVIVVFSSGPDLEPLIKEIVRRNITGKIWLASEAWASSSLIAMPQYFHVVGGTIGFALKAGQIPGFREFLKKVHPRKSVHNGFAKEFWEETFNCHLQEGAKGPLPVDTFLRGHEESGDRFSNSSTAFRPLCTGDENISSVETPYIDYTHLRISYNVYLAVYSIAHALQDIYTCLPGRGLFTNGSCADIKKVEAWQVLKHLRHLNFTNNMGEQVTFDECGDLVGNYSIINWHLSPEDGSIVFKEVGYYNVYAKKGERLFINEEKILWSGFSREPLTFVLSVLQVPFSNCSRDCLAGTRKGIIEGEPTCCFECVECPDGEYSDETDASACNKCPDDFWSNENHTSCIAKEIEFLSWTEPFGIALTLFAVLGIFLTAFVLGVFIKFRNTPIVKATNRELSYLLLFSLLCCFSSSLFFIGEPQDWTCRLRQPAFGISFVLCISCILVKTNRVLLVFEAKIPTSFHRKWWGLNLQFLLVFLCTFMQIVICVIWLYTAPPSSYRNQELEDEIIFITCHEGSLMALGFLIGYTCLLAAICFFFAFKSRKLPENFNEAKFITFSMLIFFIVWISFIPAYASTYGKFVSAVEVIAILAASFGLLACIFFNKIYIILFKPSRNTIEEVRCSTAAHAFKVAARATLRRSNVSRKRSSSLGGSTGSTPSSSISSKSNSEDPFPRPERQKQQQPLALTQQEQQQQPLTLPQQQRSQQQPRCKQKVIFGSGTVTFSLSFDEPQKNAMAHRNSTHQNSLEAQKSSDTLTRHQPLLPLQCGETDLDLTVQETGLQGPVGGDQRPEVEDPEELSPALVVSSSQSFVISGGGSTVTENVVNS
Protocol: Cells obtained from the pool of hygromycin selected HEK293 cells transfected with Cep4B containing the HuPCaR 5.2 insert were plated on collagen coated Aklar squares which had been placed into individual wells of 12-well tissue culture plates. Two to six days later, medium was removed and the cells washed with balanced salt solution and 1 ml of buffer containing 1 μM fura2-AM, 1 mM CaCl2 and 0.1% BSA and 1 mM CaCl2. Measurements of fluorescence in response to calcium receptor agonists were performed at 37° C. in a spectrofluorimeter using excitation and emission wavelengths of 340 and 510 nm, respectively. For signal calibration, Fmax was determined after addition of ionomycin (40 μM) and the apparent Fmin was determined by addition of 0.3 M EGTA, 2.5 M Tris-HCl; pH 10.

[1] = target: T2, parathyroid cell calcium receptor (Homo sapiens, UniProt P41180); test: [Ca2+]i (fura-2) in human parathyroid cells; details: 20 μM
T2 construct: Dissociated parathyroid cells were prepared from a parathyroid adenoma obtained by surgery; endogenous in cells; host or cells: dissociated primary human parathyroid cells from patients with primary or uremic hyperparathyroidism
T2 sequence (P41180 20-1078): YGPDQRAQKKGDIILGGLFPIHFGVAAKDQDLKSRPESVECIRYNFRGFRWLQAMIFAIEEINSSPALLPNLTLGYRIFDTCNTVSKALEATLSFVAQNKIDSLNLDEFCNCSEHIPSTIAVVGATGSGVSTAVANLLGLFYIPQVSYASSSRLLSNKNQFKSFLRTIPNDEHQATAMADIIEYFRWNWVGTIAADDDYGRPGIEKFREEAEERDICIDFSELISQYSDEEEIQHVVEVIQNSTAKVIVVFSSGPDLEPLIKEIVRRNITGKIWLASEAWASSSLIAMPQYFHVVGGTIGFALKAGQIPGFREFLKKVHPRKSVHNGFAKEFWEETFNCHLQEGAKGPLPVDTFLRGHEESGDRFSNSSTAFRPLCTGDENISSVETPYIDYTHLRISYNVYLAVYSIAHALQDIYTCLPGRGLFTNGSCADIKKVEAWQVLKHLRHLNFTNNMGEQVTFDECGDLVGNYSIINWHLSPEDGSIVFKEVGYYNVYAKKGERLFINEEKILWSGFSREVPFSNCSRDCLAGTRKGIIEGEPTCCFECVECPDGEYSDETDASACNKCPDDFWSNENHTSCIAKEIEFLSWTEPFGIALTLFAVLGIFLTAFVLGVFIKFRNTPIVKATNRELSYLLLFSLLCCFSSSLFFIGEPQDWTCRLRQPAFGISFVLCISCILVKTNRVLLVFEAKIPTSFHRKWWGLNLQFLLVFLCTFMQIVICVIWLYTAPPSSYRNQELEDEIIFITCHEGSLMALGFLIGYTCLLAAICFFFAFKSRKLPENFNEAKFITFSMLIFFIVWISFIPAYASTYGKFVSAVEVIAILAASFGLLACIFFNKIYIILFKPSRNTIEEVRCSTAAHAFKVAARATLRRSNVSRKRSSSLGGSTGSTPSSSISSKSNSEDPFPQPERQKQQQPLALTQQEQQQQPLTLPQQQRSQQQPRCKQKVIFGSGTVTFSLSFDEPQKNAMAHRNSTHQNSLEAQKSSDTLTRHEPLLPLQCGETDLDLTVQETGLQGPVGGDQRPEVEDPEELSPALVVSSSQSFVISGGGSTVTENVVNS
Protocol: This section describes procedures used to obtain and treat parathyroid cells from calves and humans. […] Human parathyroid glands, were obtained from patients undergoing surgical removal of parathyroid tissue for primary or uremic hyperparathyroidism (uremic HPT), and were treated similarly to bovine tissue.
The cells were then pelleted, resuspended in the same buffer, but lacking the ester, and incubated a further 15 minutes at 37° C. The cells were subsequently washed twice with PCB containing 0.5 mM CaCl2 and 0.5% BSA and maintained at room temperature (about 20° C.) Immediately before use, the cells were diluted five-fold with prewarmed 0.5 mM CaCl2-PCB to obtain a final BSA concentration of 0.1%. The concentration of cells in the cuvette used for fluorescence recording was 1−2×10^6/ml.
The fluorescence of indicator-loaded cells was measured at 37° C. in a spectrofluorimeter (Biomedical Instrumentation Group, University of Pennsylvania, Philadelphia, Pa.) equipped with a thermostated cuvette holder and magnetic stirrer using excitation and emission wavelengths of 340 and 510 nm, respectively. […] To correct the calibration for dye leakage, cells were placed in the cuvette and stirred at 37° C. for 2-3 minutes. The cell suspension was then removed, the cells pelleted, and the supernatant returned to a clean cuvette. […] This estimate was subtracted from the apparent Fmin.

human parathyroid cells = test: PTH secretion from human parathyroid cells; details: concentrations that mobilize intracellular Ca2+
Protocol: PTH secretion was measured by first suspending cells in PCB containing 0.5 mM CaCl2 and 0.1% BSA.
For human cells, a commercially available radioimmunoassay kit (INS-PTH; Nichols Institute, Los Angeles, Calif.) which recognizes intact and N-terminal human PTH was used because GW-1 antibody recognizes human PTH poorly.

SMILES | intracellular calcium (HuPCaR 5.2) | increase in [Ca2+]i [1] | PTH secretion (human parathyroid cells)
COc1cccc([C@@H](C)NCCCc2ccccc2)c1 (single isomer, unassigned) [NPS R-467] | Robust increases in intracellular calcium | – | –
NC[C@@H]1O[C@H](O[C@H]2[C@@H](O)[C@H](O[C@@H]3[C@@H](O)[C@H](N)C[C@H](N)[C@H]3O[C@H]3O[C@H](CN)[C@@H](O)[C@H](O)[C@H]3N)O[C@@H]2CO)[C@H](N)[C@@H](O)[C@@H]1O [Neomycin B, neomycin B] | – | large increase | inhibited PTH secretion
